The record followed here is patent US20060122432A1, “Aryl piperidine derivatives and use thereof to reduce elevated levels of ldl-cholesterol” (priority 2002, published 2006).

Structures are written as SMILES. Structures can show the parent of a compound that is named as a salt.

One data set relates to LDL-r promoter. The data set can be described thus: LDL-r promoter luciferase reporter assay in HepG2 cells. Format: cell-based. To be noted: Homo sapiens; HepG2 cells stably transfected with LDL-r promoter-luciferase construct, 24 hours incubation, 2% lipoprotein-deficient serum; read-out: EC50 induction of luciferase activity. On the procedure:
HepG2 cells, stably transfected with a construct comprising the LDL-r promoter and the luciferase reporter gene, were seeded at 50.000 cells/well in 96 well plates. After 1 day, cells were incubated with compounds for 24 hours in RPMI medium containing 2% of lipoprotein-deficient serum. Compounds were tested from […]. Cell lysates were prepared and the luciferase activity was measured by the luciferase assay system (Promega). Induction of luciferase activity was calculated taking untreated cells as control. The ED50 of each compounds was determined compared to the ED50 of an internal standard.
In general terms: A reporter such as luciferase makes a cellular process visible.

In general, melting point refers to the temperature, or range, at which the solid turns liquid. The molecule `Cc1nc(-c2ccc(C#N)cc2)sc1C(=O)NCCCCN1CCC(c2ccc3c(c2OCCO)CCCC3)CC1` (as salt: hydrochloride) [Example 7, 2-(4-Cyano-phenyl)-4-methyl-thiazole-5-carboxylic acid (4-{4-[1-(2-hydroxy-ethoxy)-5,6,7,8-tetrahydro-naphthalen-2-yl]-piperidin-1-yl}-butyl)-amide, hydrochloride] returned a melting point of 188 °C.
Consider `O=C(NCCCCN1CCC(c2ccc3c(c2OCCO)CCCC3)CC1)c1sc(-c2ccc(C(F)(F)F)cc2)nc1CO` [Example 3, 4-Hydroxymethyl-2-(4-trifluoromethyl-phenyl)-thiazole-5-carboxylic acid (4-{4-[1-(2-hydroxy-ethoxy)-5,6,7,8-tetrahydro-naphthalen-2-yl]-piperidin-1-yl}-butyl)-amide], for which the melting point lay in the range of 157 to 159 °C.
A word on the EC50: it is the concentration that produces a half-maximal response. As to `Cc1nc(-c2ccc(Cl)cc2Cl)sc1C(=O)NCCCCN1CCC(c2ccc3c(c2OCCO)CCCC3)CC1` [Example 8, 2-(2,4-dichloro-phenyl)-4-methyl-thiazole-5-carboxylic acid (4-{4-[1-(2-hydroxy-ethoxy)-5,6,7,8-tetrahydro-naphthalen-2-yl]-piperidin-1-yl}-butyl)-amide], in the data set on LDL-r promoter, the EC50 stood at 13 nM.
`CS(=O)(=O)Nc1ccc(-c2ccc(C(=O)NCCCCN3CCC(c4ccc5c(c4OCCO)CCCC5)CC3)cc2)cc1` [Example 12, 4′-Methanesulfonylamino-biphenyl-4-carboxylic acid (4-{4-[1-(2-hydroxy-ethoxy)-5,6,7,8-tetrahydro-naphthalen-2-yl]-piperidin-1-yl}-butyl)-amide] yielded a melting point of 216 °C. Also, the concentration giving a half-maximal response (EC50) in the data set with LDL-r promoter came to 5 nM.
